PubChem BioAssay (NCI)
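Growth conditions: 96-well plates. Treatment: test compound, 48 hours, 5 concentrations. Analysis: linear interpolation between bracketing concentrations; unreached endpoints set to highest concentration. The concentration for 50% growth inhibition is given as GI50. At the TGI there is no net growth.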

Legend:
Assay in all cases: NCI tumour cell line growth inhibition, 48 h
786-0 renal = tested on: 786-0 renal
BT-549 breast = tested on: BT-549 breast
CAKI-1 renal = tested on: CAKI-1 renal
CCRF-CEM leukemia = tested on: CCRF-CEM leukemia
HS 578T breast = tested on: HS 578T breast
MALME-3M melanoma = tested on: MALME-3M melanoma
OVCAR-8 ovarian = tested on: OVCAR-8 ovarian
SNB-75 CNS = tested on: SNB-75 CNS
TK-10 renal = tested on: TK-10 renal
UACC-257 melanoma = tested on: UACC-257 melanoma

## O=C1CS(=O)(=O)C(c2cccc(Oc3ccccc3)c2)N1c1ccccc1 (stereo not drawn)
786-0 renal
  TGI: 37.8 µM
BT-549 breast
  TGI: 49.1 µM
CAKI-1 renal
  TGI: 58.3 µM
CCRF-CEM leukemia
  TGI: > 100 µM
HS 578T breast
  TGI: 69.9 µM
MALME-3M melanoma
  TGI: 42.6 µM
OVCAR-8 ovarian
  TGI: > 100 µM
SNB-75 CNS
  TGI: > 100 µM
TK-10 renal
  TGI: 60 µM
UACC-257 melanoma
  TGI: 46 µM

## COc1ccc2c(c1)c1nn(CCN3CCCCC3)c3ccc4c(=O)n(CCN(C)C)c(=O)n2c4c13
786-0 renal
  TGI: 0.059 µM
BT-549 breast
  TGI: 1.08 µM
CAKI-1 renal
  TGI: 0.375 µM
CCRF-CEM leukemia
  TGI: 0.785 µM
HS 578T breast
  TGI: 0.412 µM
MALME-3M melanoma
  TGI: 0.351 µM
OVCAR-8 ovarian
  TGI: 0.3 µM
SNB-75 CNS
  TGI: 0.0711 µM
TK-10 renal
  TGI: 0.44 µM
UACC-257 melanoma
  TGI: 0.885 µM

## COc1ccc(N=C2C(=Nc3ccc(OC)cc3)N(c3ccc(N(C)C)cc3)C(=S)N2c2ccc(OC)cc2)cc1
786-0 renal
  TGI: > 100 µM
BT-549 breast
  TGI: > 100 µM
CAKI-1 renal
  TGI: > 100 µM
CCRF-CEM leukemia
  TGI: > 100 µM
HS 578T breast
  TGI: > 100 µM
MALME-3M melanoma
  TGI: > 100 µM
OVCAR-8 ovarian
  TGI: > 52 µM
SNB-75 CNS
  TGI: > 91.8 µM
TK-10 renal
  TGI: > 100 µM
UACC-257 melanoma
  TGI: > 58.1 µM

## CCCc1nnc2sc(COc3cc(Cl)c(OCc4nn5c(CCC)nnc5s4)cc3Cl)nn12
786-0 renal
  TGI: > 100 µM
BT-549 breast
  TGI: > 100 µM
CAKI-1 renal
  TGI: > 100 µM
CCRF-CEM leukemia
  TGI: 46.8 µM
HS 578T breast
  TGI: > 100 µM
MALME-3M melanoma
  TGI: > 100 µM
OVCAR-8 ovarian
  TGI: > 100 µM
SNB-75 CNS
  TGI: 45.3 µM
TK-10 renal
  TGI: > 100 µM
UACC-257 melanoma
  TGI: > 100 µM

## CC(=O)OCCCCn1cc(Cn2ccc(=O)n(Cc3cn(CCCCOC(C)=O)nn3)c2=O)nn1
786-0 renal
  TGI: > 100 µM
BT-549 breast
  TGI: > 100 µM
CAKI-1 renal
  TGI: > 100 µM
CCRF-CEM leukemia
  TGI: > 100 µM
HS 578T breast
  TGI: > 100 µM
MALME-3M melanoma
  TGI: > 100 µM
OVCAR-8 ovarian
  TGI: > 100 µM
SNB-75 CNS
  TGI: > 100 µM
TK-10 renal
  TGI: > 100 µM
UACC-257 melanoma
  TGI: > 100 µM

## CCOC(=O)C(=CN1CCNC1=S)C(=O)OCC
786-0 renal
  TGI: > 100 µM
BT-549 breast
  TGI: > 100 µM
CAKI-1 renal
  TGI: > 100 µM
CCRF-CEM leukemia
  TGI: > 100 µM
HS 578T breast
  GI50: > 100 µM
  TGI: > 100 µM
MALME-3M melanoma
  TGI: > 100 µM
OVCAR-8 ovarian
  TGI: > 100 µM
SNB-75 CNS
  GI50: > 100 µM
  TGI: > 100 µM
TK-10 renal
  GI50: > 100 µM
  TGI: > 100 µM
UACC-257 melanoma
  TGI: > 100 µM

## COc1ccc([C@]23CCN4COC[C@@H]([C@H]42)C2(CC3)OCC(C)(C)CO2)cc1OC
786-0 renal
  TGI: > 100 µM
BT-549 breast
  TGI: > 100 µM
CAKI-1 renal
  TGI: > 100 µM
CCRF-CEM leukemia
  TGI: > 100 µM
HS 578T breast
  TGI: > 100 µM
MALME-3M melanoma
  TGI: > 100 µM
OVCAR-8 ovarian
  TGI: > 100 µM
SNB-75 CNS
  TGI: > 100 µM
TK-10 renal
  TGI: > 100 µM
UACC-257 melanoma
  TGI: > 100 µM

## CCOC(=O)C(=O)CC(=O)C1=C(c2ccccc2OC)CC(c2cccs2)=CC1=O
786-0 renal
  TGI: > 100 µM
BT-549 breast
  TGI: > 100 µM
CAKI-1 renal
  TGI: > 100 µM
CCRF-CEM leukemia
  TGI: > 100 µM
HS 578T breast
  TGI: > 100 µM
MALME-3M melanoma
  TGI: > 100 µM
OVCAR-8 ovarian
  TGI: > 100 µM
SNB-75 CNS
  TGI: 49.8 µM
TK-10 renal
  TGI: > 100 µM
UACC-257 melanoma
  TGI: > 100 µM

## CC12ON(P(=O)(c3ccccc3)c3ccccc3)C(C)(c3ccccc31)c1ccccc12
786-0 renal
  TGI: > 100 µM
BT-549 breast
  TGI: > 100 µM
CAKI-1 renal
  TGI: > 100 µM
CCRF-CEM leukemia
  TGI: > 100 µM
HS 578T breast
  TGI: > 100 µM
MALME-3M melanoma
  TGI: > 100 µM
OVCAR-8 ovarian
  TGI: > 100 µM
SNB-75 CNS
  TGI: > 100 µM
TK-10 renal
  TGI: > 100 µM
UACC-257 melanoma
  TGI: > 100 µM

## CC(=O)N(C(C)=O)n1c(Cc2ccc(C)cc2)nn(C(C)=O)c1=O
786-0 renal
  TGI: > 100 µM
BT-549 breast
  TGI: > 100 µM
CAKI-1 renal
  TGI: > 100 µM
CCRF-CEM leukemia
  TGI: > 100 µM
HS 578T breast
  TGI: > 100 µM
MALME-3M melanoma
  TGI: > 100 µM
OVCAR-8 ovarian
  TGI: > 100 µM
SNB-75 CNS
  TGI: > 100 µM
TK-10 renal
  TGI: > 100 µM
UACC-257 melanoma
  TGI: > 100 µM

## N=c1oc2ccccc2cc1-c1nc2ccccc2c(=O)[nH]1
786-0 renal
  TGI: > 100 µM
BT-549 breast
  TGI: > 100 µM
CAKI-1 renal
  TGI: > 100 µM
CCRF-CEM leukemia
  TGI: > 100 µM
HS 578T breast
  TGI: 84.3 µM
MALME-3M melanoma
  TGI: > 100 µM
OVCAR-8 ovarian
  TGI: > 100 µM
SNB-75 CNS
  TGI: 25.3 µM
TK-10 renal
  TGI: > 100 µM
UACC-257 melanoma
  TGI: > 100 µM

## O=C(N/N=C(/COc1ccccc1Cl)N=Cc1ccncc1)c1ccncc1
786-0 renal
  TGI: > 100 µM
BT-549 breast
  TGI: > 100 µM
CAKI-1 renal
  TGI: > 100 µM
CCRF-CEM leukemia
  TGI: > 100 µM
HS 578T breast
  TGI: > 100 µM
MALME-3M melanoma
  TGI: > 100 µM
OVCAR-8 ovarian
  TGI: > 100 µM
SNB-75 CNS
  TGI: 98.7 µM
TK-10 renal
  TGI: > 100 µM
UACC-257 melanoma
  TGI: > 100 µM

## COc1cc2c(cc1OC)[C@@](C)(C(O)C(O)C(C)(C)O)NCC2 (stereo partly drawn)
786-0 renal
  TGI: > 100 µM
BT-549 breast
  TGI: > 100 µM
CAKI-1 renal
  TGI: > 100 µM
CCRF-CEM leukemia
  TGI: > 100 µM
HS 578T breast
  TGI: > 100 µM
MALME-3M melanoma
  TGI: > 100 µM
OVCAR-8 ovarian
  TGI: > 100 µM
SNB-75 CNS
  TGI: > 100 µM
TK-10 renal
  TGI: > 100 µM
UACC-257 melanoma
  TGI: > 100 µM
